Reference: ChEMBL document CHEMBL5385852, “Structural optimization and biological evaluation of 1-adamantylcarbonyl-4-phenylpiperazine derivatives as FXR agonists for NAFLD” (Eur J Med Chem, 2023)
Activity calls are given as the source filed them. No cut-off for these calls is given here.

Experiments:
Mus musculus [1] = assay: Anti-hyperlipidemic activity in high fat diet induced obese C57BL/6J mouse model assessed as improvement in insulin sensitivity at 200 mg/kg by insulin tolerance test; assay type: functional, organism-based
Mus musculus [2] = assay: Anti-hyperlipidemic activity in high fat diet induced obese C57BL/6J mouse model assessed as decrease in hepatic triglyceride level at 200 mg/kg; assay type: functional, organism-based
Mus musculus [3] = assay: Anti-hyperlipidemic activity in high fat diet induced obese C57BL/6J mouse model assessed as decrease in hepatic low density lipoprotein cholesterol level at 200 mg/kg; assay type: functional, organism-based
Mus musculus [4] = assay: Anti-hyperlipidemic activity in high fat diet induced obese C57BL/6J mouse model assessed as decrease in hepatic total cholesterol level at 200 mg/kg; assay type: functional, organism-based
Mus musculus [5] = assay: Anti-hyperlipidemic activity in high fat diet induced obese C57BL/6J mouse model assessed as decrease in total cholesterol level at 200 mg/kg; assay type: functional, organism-based
Bile acid receptor = molecular target: T1, Bile acid receptor (Homo sapiens, UniProt Q96RI1); assay: Agonist activity at Gal4-fused FXR LBD (unknown origin) transfected in HEK293T cells co-transfected with Peak12-Gal4UAS-luciferase reporter assessed as receptor transactivation incubated for 24 hrs by firefly luciferase assay; assay type: cell-based
T1 sequence (Q96RI1 whole entry): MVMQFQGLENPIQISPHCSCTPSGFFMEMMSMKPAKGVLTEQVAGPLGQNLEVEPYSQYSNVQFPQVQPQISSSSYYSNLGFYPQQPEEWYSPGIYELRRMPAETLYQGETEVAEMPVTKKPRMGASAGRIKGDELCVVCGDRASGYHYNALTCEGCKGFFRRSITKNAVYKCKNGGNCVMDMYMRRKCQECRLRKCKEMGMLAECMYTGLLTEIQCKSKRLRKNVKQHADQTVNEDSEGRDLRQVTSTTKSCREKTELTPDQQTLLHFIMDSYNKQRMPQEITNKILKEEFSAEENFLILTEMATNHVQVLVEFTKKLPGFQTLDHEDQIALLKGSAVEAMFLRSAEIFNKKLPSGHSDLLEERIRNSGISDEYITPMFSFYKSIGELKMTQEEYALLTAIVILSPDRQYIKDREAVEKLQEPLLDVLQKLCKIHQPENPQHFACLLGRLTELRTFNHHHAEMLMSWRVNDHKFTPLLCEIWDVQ

Structure (SMILES) | Activity (Mus musculus [1]) | Activity (Mus musculus [2]) | Activity (Mus musculus [3]) | Activity (Mus musculus [4]) | Activity (Mus musculus [5]) | EC50 (Bile acid receptor) [nM]
Cc1ccc(Cl)cc1N1CCN(C(=O)C23CC4CC(CC(C4)C2)C3)CC1 | inactive | Active | inactive | inactive | inactive | 
O=C(N1CCN(c2cc(Cl)ccc2O)CC1)C12CC3CC(CC(C3)C1)C2 |  |  |  |  |  | 2140
